Test results as given in ChEMBL document CHEMBL1201862, “PubChem BioAssay data set” (2004).
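Cells were grown in 96-well plates and exposed to each compound for 48 hours at five concentrations; endpoints were interpolated linearly between bracketing concentrations, or set to the highest concentration if not reached. Abbreviation: GI50, concentration required for 50% inhibition of growth.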 Calls of active or inactive are those of the source. No stated cut-off is given here; in the data, active = GI50 up to about 1.1 µM and inactive = higher.

Tests used:
Experiment in all cases: DTP human tumour cell line panel, 48 h
SK-OV-3 = test system: SK-OV-3
SR = test system: SR
Malme-3M = test system: Malme-3M
HL-60 = test system: HL-60
RXF 393 = test system: RXF 393
SNB-75 = test system: SNB-75
A549 = test system: A549
HOP-92 = test system: HOP-92
HT-29 = test system: HT-29
OVCAR-5 = test system: OVCAR-5
M14 = test system: M14
EKVX = test system: EKVX
DLD-1 = test system: DLD-1
ACHN = test system: ACHN
IGROV-1 = test system: IGROV-1
OVCAR-4 = test system: OVCAR-4

Structure (SMILES)	GI50 (SK-OV-3)	GI50 (SR)	GI50 (Malme-3M)	GI50 (HL-60)	GI50 (RXF 393)	GI50 (SNB-75)	GI50 (A549)	GI50 (HOP-92)	GI50 (HT-29)	GI50 (OVCAR-5)	GI50 (M14)	GI50 (EKVX)	GI50 (DLD-1)	GI50 (ACHN)	GI50 (IGROV-1)	GI50 (OVCAR-4)
Clc1cccc(N2CCN(CCCN3CCc4c([nH]c5ccccc45)C3c3cccnc3)CC2)c1 (centres undefined)	14.6 µM (inactive)	2.29 µM (inactive)	2.54 µM (inactive)	2.46 µM (inactive)	1.58 µM (inactive)	11 µM (inactive)	7.78 µM (inactive)	8.69 µM (inactive)	3.89 µM (inactive)	7.66 µM (inactive)	2.01 µM (inactive)	15.3 µM (inactive)	11.2 µM (inactive)	12.4 µM (inactive)	29.6 µM (inactive)	6.98 µM (inactive)
CC(=O)Nc1ccc(SC#N)c2c(NC(C)=O)cccc12	> 100 µM (inactive)	33.6 µM (inactive)	> 100 µM (inactive)	24.1 µM (inactive)	> 100 µM (inactive)	> 100 µM (inactive)	> 100 µM (inactive)	50.7 µM (inactive)	> 100 µM (inactive)	> 100 µM (inactive)	> 100 µM (inactive)	> 100 µM (inactive)	71.6 µM (inactive)	> 100 µM (inactive)	> 100 µM (inactive)	> 92.9 µM (inactive)
Cc1cccc(C)c1N1C(=O)C(=O)C(c2nc3ccccc3s2)/C(=N/NC(=O)c2ccccc2O)C1=O (centres undefined)	50.7 µM (inactive)	8.45 µM (inactive)	33 µM (inactive)	12.5 µM (inactive)	3.09 µM (inactive)	1.05 µM (active)	11.7 µM (inactive)	15.7 µM (inactive)	51.5 µM (inactive)	36.9 µM (inactive)	10.1 µM (inactive)	20.6 µM (inactive)	22.8 µM (inactive)	6.65 µM (inactive)	3.26 µM (inactive)	16.8 µM (inactive)
CCCCCCCCCCCCCCCC(=O)N[C@H]1CCc2cc(OC)c(OC)c(OC)c2-c2ccc(SC)c(=O)cc21	1.67 µM (inactive)	0.258 µM (active)	0.762 µM (active)	0.279 µM (active)	3.02 µM (inactive)	0.238 µM (active)	0.486 µM (active)	0.891 µM (active)	0.253 µM (active)	15.2 µM (inactive)	0.279 µM (active)	0.454 µM (active)	0.365 µM (active)	2.2 µM (inactive)	2.58 µM (inactive)	3.24 µM (inactive)
